One experiment has as its system MRSA 252 biofilms. In words: Biofilm prevention, crystal violet. It is filed as cell-based, S. aureus. To be noted: 50 μg/mL. How it is done: The potential of the lead compounds to both inhibit S. aureus biofilm growth and to disrupt more established biofilms was next investigated. Since previous studies had determined each compounds MIC against planktonic MRSA bacteria, it was hypothesized that a compound concentration of 50 μg/mL (at or above the MIC of all lead compounds except 2) was a reasonable concentration to begin the study.
Prevention: 100 μL of a mixture of TSB supplemented with 0.5% glucose and antibiotic (1:1) was added to individual wells in 96-well plate. The wells were then inoculated with […] an overnight culture of bacteria and incubated at 37° C. for 24 hours. Following the pre-determined length of time, the medium in each well was discarded, washed twice with PBS before 150 μL of a 1% crystal violet solution was added and the plate was left to incubate at room temperature for a further 30 minutes. Each well was then washed a further 4× with PBS before 200 μL 7% acetic acid was added. The absorbance of each well was then measured at OD595.

For a further experiment, the system named is C. albicans ATCC 90028. In words: Anti-fungal MIC (CO-ADD). Format: cell-based. The protocol:
(§1) Fungal strains were cultured for 3 days on Yeast Extract-Peptone Dextrose (YPD) agar at 30° C. A yeast suspension of 1×10^6 to 5×10^6 CFU/mL (as determined by OD530) was prepared from five colonies. […] All plates were covered and incubated at 35° C. for 36 hours without shaking. […] The absorbance was measured using a Biotek Multiflo Synergy HTX plate reader. In both cases, the percentage of growth inhibition was calculated for each well, using the negative control (media only) and positive control (fungi without inhibitors) on the same plate. […] Due to a higher variance in growth and inhibition, a lower threshold was applied to the data for C. neoformans. In addition, the maximal percentage of growth inhibition is reported as DMax, indicating any compounds with marginal activity.

The test system of experiment [1] is C. deuterogattii ATCC 32609. As to the kind of experiment: Anti-fungal MIC (CO-ADD). It is filed as cell-based. The protocol: as §1
The test system of a further experiment is C. glabrata ATCC 90030. In words: Anti-fungal MIC (CO-ADD). It is filed as cell-based. The protocol: as §1
Experiment [2] concerns C. neoformans H99; ATCC 208821. In words: Anti-fungal MIC (CO-ADD). It is filed as cell-based. How it is done: as §1
The next experiment deals with C. tropicalis ATCC 450. In words: Anti-fungal MIC (CO-ADD). Format: cell-based. The protocol: as §1
A further experiment relates to C. tropicalis ATCC 750. In words: Anti-fungal MIC (CO-ADD). It is filed as cell-based. The protocol:
as §1

Experiment [3] has as its system MRSA 252, MSSA 476, S. aureus 15981, P. aeruginosa PA01 and E. coli DH5α. As to the kind of experiment: Disc diffusion primary screening, five strains (statements in words). Format: cell-based. As to conditions: 500 μg/mL. In a few lines: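 The Kirby-Bauer disc diffusion method followed CLSI guidelines, using a 1 in 200 dilution of overnight culture spread on Mueller-Hinton agar. Discs loaded with 50 μL of antibiotic were applied and the plates were incubated for 24 hours at 37° C. Any zone of inhibition was recorded.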
A general note: Agar diffusion results depend on both activity and mobility in agar.

In a further experiment the test system is MRSA 252. As to the kind of experiment: Resistance testing by serial passaging. Format: cell-based, S. aureus. As to conditions: 18 serial passage cycles. The protocol: Next a serial passage study was undertaken in order to elucidate the speed at which target bacteria might either evolve resistance or select for persister cells within that population following exposure to compound 36.
For resistance development by serial passaging, 5 μL of overnight cultured MRSA 252 cells were added to individual wells in a 96-well plate containing 195 μL of TSB supplemented with a range of antibiotic concentrations and incubated at 37° C. for 18 hours. Ofloxacin served as a control. Wells where bacterial growth was visible after 18 hours were plated on TSA plates and incubated at 37° C. for a further 18 hours. Single colonies obtained from the overnight cultured bacteria were then inoculated into fresh TSB medium, incubated at 37° C. for 18 hours before being used in the next cycle of the resistance testing. This process continued for 18 cycles.

Experiment [4] concerns Pseudomonas aeruginosa PA01. As to the kind of experiment: Disc diffusion (Kirby-Bauer), zone of inhibition. To be noted: 500 μg/mL, '/' = no zone. Format: cell-based. In outline:
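Zones of inhibition recorded after 24 h at 37 °C on Mueller-Hinton agar. Agar was inoculated with 1 in 200 diluted 18 h broth cultures, and discs carried 50 μL of antibiotic. Method follows CLSI 2017 disc diffusion.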

Another experiment deals with S. aureus SH1000 cells. In words: DiSC3(5) membrane potential assay. To be noted: 16 μg/mL, 180 minutes. Format: cell-based. The protocol:
We next looked to further confirm the cell membrane as being the target site of action for our compounds, by undertaking a membrane depolarization assay using the voltage sensitive dye, 3,3′-dipropylthiacarbocyanine iodide (DiSC3(5)).
[…] Cultures of SH1000 were grown to OD600 of 0.2 before being incubated further with 0.1 M KCl and 2 μM DiSC3(5) for 30 minutes at 37° C. […] Subsequently, the cells were centrifuged and 1 mL of supernatant mixed with 1 mL DMSO; the centrifuged pellet was lysed in DMSO for 10 minutes and added to equal volumes of HEPES and glucose buffer. Extracellular and intracellular fluorescence was measured on a LS 45 luminescence spectrometer (PerkinElmer) at an excitation and emission of 622 nm and 670 nm respectively. Consequently, the membrane potential was calculated using the Nernst equation and expressed as a percentage of the initial value.

[5] abbreviates: Candida albicans, ATCC90028, read-out: MIC.
The mark [6] stands for this setting: Nakaseomyces glabratus, ATCC90030, read-out: MIC.
Where [7] appears, read: Cryptococcus neoformans, ATCC208821, read-out: MIC.
Where [8] appears, read: Candida tropicalis, ATCC450, read-out: MIC.
Where [9] appears, read: Candida tropicalis, ATCC750, read-out: MIC.

Read-outs that look alike come from different tables or passages of the source. Where only a bound is given, the exact number is not on record here.

On to `[C-]#[N+]C=Cc1ccc(O)cc1` [Compound 2, 4-(2-Isocyanovinyl)phenol], for which, in the experiment on MRSA 252 biofilms, the “prevention of MRSA 252 biofilm growth” value is given as “entirely prevented biofilm formation”.
As usually defined, the MIC is the least concentration at which growth counts as inhibited. `[C-]#[N+]C=Cc1cc(Br)ccc1O` [Compound 13]: the minimal inhibitory concentration (MIC) is 4 to 8 µg/mL in the experiment on C. albicans ATCC 90028 (setting [5]); 4 µg/mL in experiment [1] (read-out: MIC); above 32 µg/mL with C. glabrata ATCC 90030 (setting [6]); 4 to 8 µg/mL in experiment [2] (setting [7]); 4 µg/mL in the experiment on C. tropicalis ATCC 450 (setting [8]); 16 µg/mL in the experiment on C. tropicalis ATCC 750 (setting [9]).
Turning to `[C-]#[N+]C=Cc1ccc(O)c(Br)c1` [Compound 14], the MIC is 32 µg/mL in the experiment with C. albicans ATCC 90028 (setting [5]); 32 µg/mL in experiment [1] (read-out: MIC); above 32 µg/mL in the experiment with C. glabrata ATCC 90030 (setting [6]); above 32 µg/mL in experiment [2] (setting [7]); above 32 µg/mL in the experiment on C. tropicalis ATCC 450 (setting [8]); above 32 µg/mL with C. tropicalis ATCC 750 (setting [9]).
`[C-]#[N+]/C=C/c1ccc(O)cc1/C=C/c1ccccc1` [Compound 36, 4-((E Z)-2-Isocyanovinyl)-3-((E)-styryl)phenol]: the “antibiotic activity in disc diffusion assays (in words)” value in experiment [3] is on record as “retained antibiotic activity”. Also, the minimal inhibitory concentration (MIC) is 16 µg/mL with C. albicans ATCC 90028 (setting [5]); 2 µg/mL in experiment [1] (read-out: MIC); 32 µg/mL in the experiment with C. glabrata ATCC 90030 (setting [6]); 4 to 8 µg/mL in [2] (setting [7]); 2 µg/mL in the experiment with C. tropicalis ATCC 450 (setting [8]); 32 µg/mL in the experiment with C. tropicalis ATCC 750 (setting [9]). For the same molecule, the “change of MIC after serial passage (in words)” value in the experiment on MRSA 252 was “no increase in the MIC”.
Usually zone of inhibition stands for the size of the clear area around the sample on an inoculated plate. A lower zone of inhibition goes with a weaker effect on the plate. Turning to `[C-]#[N+]/C=C/c1ccc(NC(C)=O)cc1/C=C/c1ccccc1` [Compound 41, N-(4-((E)-2-Isocyanovinyl)-3-((E)-styryl)phenyl)acetamide], in experiment [4], the zone of inhibition at 500 µg/mL was 16 mm. For the same molecule, in experiment [3], the “antibiotic activity in disc diffusion assays (in words)” value is reported as “excellent activity against all three S. aureus strains, as well as P. aeruginosa PAO1”. For the same molecule, the MIC with C. albicans ATCC 90028 (setting [5]) is 2 to 4 µg/mL; in experiment [1] (read-out: MIC) it was 1 to 2 µg/mL; with C. glabrata ATCC 90030 (setting [6]) it was 32 µg/mL; in [2] (setting [7]), 2 µg/mL; in the experiment on C. tropicalis ATCC 450 (setting [8]), 1 to 2 µg/mL; with C. tropicalis ATCC 750 (setting [9]), 32 µg/mL. Further, in the experiment with S. aureus SH1000 cells, the “reduction in the proton motive force” value is 70%.
In the case of “(2-Isocyanovinyl)-4-acetaamido benzene [Compound 22]”, the minimum inhibitory concentration (MIC) in the experiment with C. albicans ATCC 90028 is 16 µg/mL; in [1], above 32 µg/mL; with C. glabrata ATCC 90030, above 32 µg/mL; in experiment [2], above 32 µg/mL; with C. tropicalis ATCC 450, above 32 µg/mL; in the experiment on C. tropicalis ATCC 750, above 32 µg/mL.

Values taken from US20240246905A1 (University of Leicester, priority 2021, published 2024).
